The results in this text go back to publication PMC6272127, “Synthesis, Antiproliferative Activity and Molecular Properties Predictions of Galloyl Derivatives” (Molecules, 2015).

One series relates to U251 (glioma, CNS). Description: cells. The settings on record: for TGI: U251, total growth inhibition, 48 h. The procedure: The GI50 values (growth inhibitory activity) (Table 1) refer to the drug concentration that produces a 50% reduction of cellular growth compared with the untreated control cells. The TGI (cytostatic activity) and LC50 (cytotoxic activity) values (Table 2) refer to the drug concentration required for total growth inhibition and killing 50% of the cells, respectively.
The synthesized compounds were assessed in the following ten human tumor cell lines from various tissues kindly provide by the National Cancer Institute (Frederick, MD, USA): U251 (glioma, CNS), MCF-7 (breast), NCI-ADR/RES (breast expressing the multiple drug resistance phenotype), 786-0 (renal), NCI-H460 (lung, non-small cells), PC-3 (prostate), OVCAR-3 (ovarian), HT-29 (colon), K-562 (leukemia) and HaCaT (keratinocytes). Stock cultures were grown in media containing 5 mL of RPMI 1640 (Gibco BRL) supplemented with 5% fetal bovine serum. Gentamicin ([…]) was added to the experimental cultures. Cells in 96-well plates (100 µL cells/well) were exposed to sample concentrations in DMSO/RPMI (0.25, 2.5, 25, and 250 µg/mL) at 37 °C and 5% CO2 for 48 h. […] Next, cells were fixed with 50% trichloroacetic acid, and cell proliferation was determined by spectrophotometric quantification (540 nm) of cellular protein content employing the sulforhodamine B assay. Doxorubicin (0.025–25 µg/mL) was used as a positive control. Three measurements were obtained: first at time point zero (T0, at the beginning of incubation) and then 48 h post-incubation for both the compound-free (C) and tested (T) cells. Cell proliferation was determined using the equation 100 × [(T − T0)/C − T0]. A cytostatic effect was observed when T ≥ T0, while a cytocidal effect occurred when T < T0. The experiments were performed in triplicate.

The test system of the next series is MCF-7 (breast). In words: Anticancer assay in vitro (sulforhodamine B), MCF-7. It counts as cell-based. The settings on record: for GI50: MCF-7, 48 h, SRB. The procedure:
(§1) The experiments were performed in triplicate.

The next series concerns OVCAR-3 (ovarian). Description: Anticancer assay in vitro (sulforhodamine B), OVCAR-3. The series is classed as cell-based. Conditions: for GI50: Homo sapiens, OVCAR-3, 48 h, SRB; for TGI: OVCAR-3, total growth inhibition, 48 h. The procedure:
as §1

A further series relates to HT-29 (colon). Description: Anticancer assay in vitro (sulforhodamine B), HT-29. It counts as cell-based. The settings on record: for GI50: HT-29, 48 h, SRB; for TGI: HT-29, total growth inhibition, 48 h. As to the method: as §1
A further series has as its system 786-0 (renal). In words: cells. The series is classed as cell-based. Conditions: for GI50: SRB; for TGI: 786-0, total growth inhibition, 48 h. The procedure: as §1
The next series deals with K-562 (leukemia). Description: cells. It counts as cell-based. Conditions: for GI50: K-562, 48 h, SRB. The procedure: as §1
For series [1], the system named is NCI-ADR/RES (breast expressing the multiple drug resistance phenotype). In words: cells. The series is classed as cell-based. Conditions: for GI50 / TGI: NCI/ADR-RES; for GI50: SRB. As to the method:
as §1

The subject of series [2] is NCI-H460 (lung, non-small cells). In words: cells. The series is classed as cell-based. The settings on record: for GI50: NCI-H460, 48 h, SRB; for TGI: NCI-H460, total growth inhibition, 48 h. As to the method: as §1
The subject of another series is PC-3 (prostate). In words: cells. Conditions: for GI50: PC-3, 48 h, SRB; for TGI: PC-3, total growth inhibition. It counts as cell-based. As to the method: as §1
A further series has as its system HaCaT (keratinocytes). Description: Anticancer assay in vitro (sulforhodamine B), HaCaT. The settings on record: 48 h; for GI50: SRB; for TGI: total growth inhibition. The series is classed as cell-based. The procedure:
as §1

In series [3] the test system is ten human tumor cell lines. In words: Anticancer assay in vitro (sulforhodamine B), statements over the panel of cell lines. Conditions: OVCAR-3 and K-562 cell lines. The series is classed as cell-based. As to the method: as §1
Setting [4] is: K-562, total growth inhibition, 48 h.
Where [5] appears, read: MCF-7, total growth inhibition, 48 h.

Converted amounts (≈) assume the structure as drawn. Where two headings read alike, the source gives them in different places.

For the compound `COc1ccc(/C=N/NC(=O)c2cc(O)c(O)c(O)c2)cc1` [Compound 7, N'-(4-Methoxybenzylidene)galloyl hydrazide], the GI50 in the series on U251 (glioma, CNS) (Homo sapiens, U-251, 48 h) is 9.14 µM; in the series with MCF-7 (breast) (Homo sapiens, MCF7), 15.7 µM; in the series on OVCAR-3 (ovarian), 5.98 µM; with HT-29 (colon) (Homo sapiens) it was 25.1 µM; with 786-0 (renal) (Homo sapiens, 786-0, 48 h), 18.9 µM; with K-562 (leukemia) (Homo sapiens, K562), 8.93 µM. Further, the GI50 in [1] (Homo sapiens, 48 h) is 11.3 µM; in series [2] (Homo sapiens) it was 41.1 µM; in the series on PC-3 (prostate) (Homo sapiens), 19.6 µM; in the series with HaCaT (keratinocytes) (Homo sapiens), 18.1 µM. Also, the TGI with U251 (glioma, CNS) is reported as 64.22 µg/mL (≈ 212 µM); with K-562 (leukemia) (setting [4]), 41.76 µg/mL; in series [1] (total growth inhibition, 48 h), 66.56 µg/mL. Besides, the cytotoxic efficacy entry in [3] is given as “did not demonstrate cytotoxic efficacy”.
As for `O=C(N/N=C/c1ccc(O)cc1)c1cc(O)c(O)c(O)c1` [Compound 8, N'-(4-Hydroxybenzylidene)galloyl hydrazide], the concentration for 50% growth inhibition (GI50) in the series with U251 (glioma, CNS) (Homo sapiens, U-251, 48 h) was 6.6 µM; in the series on OVCAR-3 (ovarian), 1.35 µM; with 786-0 (renal) (Homo sapiens, 786-0, 48 h), 26.8 µM; with K-562 (leukemia) (Homo sapiens, K562), 9.17 µM; in series [2] (Homo sapiens) it was 9.38 µM; in the series with HaCaT (keratinocytes) (Homo sapiens), 8.72 µM. The TGI in the series on U251 (glioma, CNS) worked out at 26.07 µg/mL (≈ 90.4 µM).
With `COc1cccc2c1C(=O)c1c(O)c3c(c(O)c1C2=O)C[C@@](O)(C(=O)CO)C[C@@H]3O[C@H]1C[C@H](N)[C@H](O)[C@H](C)O1` [Dox, Doxorubicin, reference compound], the GI50 turned out to be 0.02 µM in the series with U251 (glioma, CNS) (Homo sapiens, U-251, 48 h); 0.01 µM with MCF-7 (breast) (Homo sapiens, MCF7); 0.02 µM in the series on OVCAR-3 (ovarian); 0.09 µM in the series on HT-29 (colon) (Homo sapiens); 0.04 µM in the series on 786-0 (renal) (Homo sapiens, 786-0, 48 h); 0.03 µM with K-562 (leukemia) (Homo sapiens, K562). Also, the 50% growth inhibitory concentration (GI50) in [1] (Homo sapiens, 48 h) was found to be 0.2 µM; in series [2] (Homo sapiens), 0.01 µM; in the series on PC-3 (prostate) (Homo sapiens) it was 0.18 µM; in the series with HaCaT (keratinocytes) (Homo sapiens) it was 0.01 µM. For the same compound, the total growth inhibition concentration (TGI) with U251 (glioma, CNS) was 2.68 µg/mL (≈ 4.93 µM); in the series on MCF-7 (breast) (setting [5]) it was 2.52 µg/mL; with OVCAR-3 (ovarian), 1.47 µg/mL (≈ 2.7 µM); in the series on HT-29 (colon), 26.03 µg/mL (≈ 47.9 µM); with 786-0 (renal), 0.51 µg/mL (≈ 0.938 µM); in the series with K-562 (leukemia) (setting [4]), 2.60 µg/mL. For the same compound, the TGI in [1] (total growth inhibition, 48 h) is 22.42 µg/mL; in [2] it was 3.73 µg/mL (≈ 6.86 µM); in the series on PC-3 (prostate) (48 h), 1.03 µg/mL (≈ 1.9 µM); with HaCaT (keratinocytes) it was 0.77 µg/mL (≈ 1.42 µM). Besides, the CC50 with 786-0 (renal) (Homo sapiens, 786-0, 48 h, read-out: LC50) was 17.8 µg/mL (≈ 32.8 µM); in the series with K-562 (leukemia) (Homo sapiens, K562, 48 h, read-out: LC50) it was 20.1 µg/mL; in the series on PC-3 (prostate) (Homo sapiens, 48 h, read-out: LC50), 7.95 µg/mL (≈ 14.6 µM).
For “Galloyl-2-methylthio-1,3,4-oxadiazole [Compound 10]”, the LC50 entry in the series on U251 (glioma, CNS) is recorded as “(30.43) µg/mL”; with MCF-7 (breast) it was “(20.24) µg/mL”; with OVCAR-3 (ovarian), “(17.34) µg/mL”; with HT-29 (colon) it was “(60.32) µg/mL”; in the series on K-562 (leukemia), “(20.20) µg/mL”; in series [1] it was “(19.65) µg/mL”. In addition, the LC50 result in series [2] is “(65.78) µg/mL”; in the series on PC-3 (prostate) it was “(69.30) µg/mL”. Further, the GI50 with U251 (glioma, CNS) (U251, 48 h, SRB) is 5.2 µM; in the series with MCF-7 (breast), 0.34 µM; in the series on HT-29 (colon), 2.77 µM; with 786-0 (renal) (786-0, 48 h) it was 9.2 µM; in the series with K-562 (leukemia), 0.6 µM; in [1] (48 h), 0.17 µM. Also, the GI50 in series [2] came out at 9.44 µM; in the series with PC-3 (prostate) it was 7.43 µM; with HaCaT (keratinocytes), 2.5 µM. Further, the TGI was 16.40 µg/mL in the series on U251 (glioma, CNS); 3.20 µM with MCF-7 (breast) (MCF-7, as printed in the text); 3.20 µg/mL in the series on MCF-7 (breast) (setting [5]); 2.38 µg/mL in the series with OVCAR-3 (ovarian); 17.66 µg/mL in the series on HT-29 (colon); 29.40 µg/mL in the series with 786-0 (renal). The TGI with K-562 (leukemia) (K-562, as printed in the text) is 3.70 µM; in the series on K-562 (leukemia) (setting [4]), 3.70 µg/mL; in series [1] it was 2.33 µM; in [1] (total growth inhibition, 48 h), 2.33 µg/mL; in series [2], 29.52 µg/mL; in the series with PC-3 (prostate) (48 h) it was 28.45 µg/mL. Besides, the TGI with HaCaT (keratinocytes) stood at 18.00 µg/mL. Further, the CC50 in the series with MCF-7 (breast) came out at 20.2 µM; with OVCAR-3 (ovarian), 17.3 µM; in the series on K-562 (leukemia), 20.2 µM; in [1], 19.7 µM.
